Results reported in US20180133221A1, “ADMINISTRATION OF UBIQUITIN-ACTIVATING ENZYME INHIBITOR AND CHEMOTHERAPEUTIC AGENTS” (Millennium Pharmaceuticals, Inc., priority 2014, published 2018).
Read-outs that look alike come from different tables or passages of the source.

What was measured:
[1] = tested on: PHTX-17C colorectal carcinoma xenograft; type: in vivo; details: for Tumor Volume Day 21: in mm³ (unit assumed)
Text: The PHTX-17C colorectal carcinoma xenograft model was established from a patient-derived tumor collected during surgery from a person with moderately differentiated adenocarcinoma.PHTX-17C tumor fragments (approximately 2×2×3 mm^3) were implanted into the subcutaneous space in the right dorsal flank of female nude mice (age 5-7 weeks, Balb/c Nude Mice, Shanghai SINO-British SIPPR/BK Lab Animal Ltd, Shanghai, China) using a 13-gauge trocar. When the mean tumor volume reached approximately 185 mm^3, the animals were randomized into 12 treatment groups (n=5/group).
(§1) Oxaliplatin (Jiang Su Geng Rui Pharmaceuticals, Inc.) is formulated in 0.9% saline and administered by IP injection once weekly (QW) at 7.5 or 12.5 mg/kg. The once weekly schedule is also described as every 7 days (Q7D).
(§2) Compound 1 [((1R,2R,3S,4R)-2,3-dihydroxy-4-(2-(3-(trifluoromethylthio)-phenyl)pyrazolo[1,5-a]pyrimidin-7-ylamino)cyclopentyl)methyl sulfamate] is formulated in 10-20% HPbCD in sterile water and administered intravenously (IV) or subcutaneously (SC) on a BIW (twice/week schedule; Monday and Thursday or Tuesday and Friday) for either 2-4 weeks.
(§3) Tumors were measured twice weekly using vernier calipers. Tumor volumes were calculated using the standard formula V=W^2×L/2,). When mean tumor volumes reached approximately 200 mm^3 for PHTX-24C, 220 mm^3 for PHTX-Lu132, 150 mm^3 for CTG-0256, 260 mm^3 for CTG-0486, 185 mm^3 for PHTX-17C, 260 mm^3 for CTG-0165, 150 mm^3 for PHTX-14B in the study of Compound 1 and paclitaxel, 180 mm^3 for PHTX-14B in the study of Compound 1 and docetaxel, 200 mm^3 for SKOV-3, 220 mm^3 for PHTX-02B in the study of Compound 1 and docetaxel, 250 mm^3 for PHTX-02B in the study of Compound 1 and paclitaxel, 195 mm^3 for CTG-0159, 180 mm^3 for CTG-0012 or 150 mm^3 for Calu-6, mice were randomized into groups of n=5-7/arm as described in the tables below, and injected with vehicle, Compound 1 or agents (docetaxel, paclitaxel, oxaliplatin, cisplatin or carboplatin), or the combination of Compound 1 plus one of the agents, at various doses and schedules as described in tables below. Tumor size and body weight were measured approximately twice a week for the duration of the study. Mice are euthanized when their tumor volume reached 10% of their body weight, or when the average tumor volume of a treatment or control group reached approximately 2000 mm^3. Tumor growth continued to be monitored after the dosing period in some studies. Average tumor volume is reported as a function of time for selected arms of selected studies in the Figures.
(§4) Measurements from day 0 to day 14, day 19, day 21, or day 28 are analyzed as specified in Tables below. All tumor volumes have a value of 1 added to them before log10 transformation. For each animal, the log tumor volume at day 0 is subtracted from the log tumor volume on the subsequent days. This difference vs. time is used to calculate an area under the curve (AUC) for each animal using the trapezoid rule. […] The synergy score for the combination of agents A and B is defined as
(§5) 100*(mean(AUCAB)−mean(AUCA)−mean(AUCB)+mean(AUCctl))/mean(AUCctl):
(§6) where AUCAB, AUCA, AUCB, and AUCctl are the AUC values for animals in the combination group, the A group, the B group, and the control group, respectively. The standard error of the synergy score is computed based on the variation in the AUC values among the animals. […] If the P-value is above 0.05, then the combination is considered to be additive. If the P-value is below 0.05, and the synergy score is less than zero, then the combination is considered to be synergistic.

[2] = tested on: PHTX-02B breast xenograft; assay: PHTX-02B xenograft model, Compound 1 and paclitaxel; type: in vivo, SCID-NOD mice
Method: (§7) Paclitaxel (Bristol-Myers Squibb Company) is formulated in 0.9% saline and administered by intravenous injection (IV) on every 4 days (Q4D) or once weekly (QW) at 10 and 20 mg/kg. […] Tumors were measured twice weekly using vernier calipers.

[3] = tested on: PHTX-24C colon xenograft; assay: PHTX-24C xenograft model, Compound 1 and oxaliplatin; type: in vivo, CB-17 SCID mice
Method: as §1, §2, §3, §4, §5
where AUCAB, AUCA, AUCB, and AUCctl are the AUC values for animals in the combination group, the A group, the B group, and the control group, respectively. […]

[4] = tested on: CTG-0256 human ovarian xenograft; assay: CTG-0256 xenograft model, Compound 1 and carboplatin; type: in vivo, Mus musculus/nu/nu mice; details: for Volume Tumor Day 14: in mm³ (unit assumed)
Text: The CTG-0256 model of human ovarian xenograft model was established from a patient-derived tumor collected during surgery at primary site from a person with ovarian cancer (serous adenocarcinoma with resistant response to carboplatin or paclitaxel). CTG-0256 tumor fragments (approximately 2×2×3 mm^3) were implanted into the subcutaneous space in the right dorsal flank of female Mus musculus/nu/nu mice (age 6-9 weeks, Harlan Laboratories, Madison, Wis.) using a 13-gauge trocar. When the mean tumor volume reached approximately 150 mm^3, the animals were randomized into 7 treatment groups (n=7/group).
Carboplatin (Teva Pharmaceuticals) is formulated in 0.9% saline and administered by IP injection once weekly (QW) at 25, 50, 60, and 75 mg/kg. The once weekly schedule is also described as every 7 days (Q7D).
as §2, §3, §4, §5, §6

[5] = tested on: CTG-0012 human primary triple negative breast cancer model; assay: CTG-0012 xenograft model, Compound 1 and paclitaxel; type: in vivo, Mus musculus/nu/nu mice; details: for Tumor Volume Day 21: in mm³ (unit assumed)
Method: as §7

[6] = tested on: CTG-0165 human lung NSCLC xenograft; assay: CTG-0165 xenograft model, Compound 1 and cisplatin; type: in vivo, Mus musculus/nu/nu mice; details: for Tumor Volume Day 21: in mm³ (unit assumed)
Method: CTG-0165 tumor fragments (approximately 2×2×3 mm^3) were implanted into the subcutaneous space in the right dorsal flank of female Mus musculus/nu/nu mice (age 6-9 weeks, Harlan Laboratories, Madison, Wis., USA) using a 13-gauge trocar. When the mean tumor volume reached approximately 260 mm^3, the animals were randomized into 8 treatment groups (n=5/group).
Cisplatin (Teva Pharmaceuticals) is formulated in 0.9% saline and administered by IV injection once weekly (QW) at 7.5 mg/kg. The once weekly schedule is also described as every 7 days (Q7D).
as §2, §3, §4, §5, §6

[7] = single agent Compound 1 IV at 20, 15, 6.25 mg/kg BIW

SMILES: NS(=O)(=O)OC[C@H]1C[C@@H](Nc2ccnc3cc(-c4cccc(SC(F)(F)F)c4)nn23)[C@H](O)[C@@H]1O [Compound 1, ((1R,2R,3S,4R)-2,3-dihydroxy-4-(2-(3-(trifluoromethylthio)phenyl)pyrazolo[1,5-a]pyrimidin-7-ylamino)cyclopentyl)methyl sulfamate]
- Tumor Volume Day 21 ([1]; 20 mg/kg Compound 1 BIWx3 IV): 1875.6
- Tumor Volume Day 21 ([1]; 25 mg/kg Compound 1 BIWx3 IV): 2159.3
- Tumor Volume Day 21 ([1]; 30 mg/kg Compound 1 BIWx3 IV): 1612.7
- anti-tumor activity compared to vehicle control ([1]; single agent Compound 1 IV at 20, 25, 30 mg/kg BIW): modest anti-tumor activity
- Tumor Volume Day 19 ([2]; 6.25 mg/kg Compound 1 BIWx3 IV, in mm³ (unit assumed)): 1850.4
- anti-tumor activity compared to vehicle control ([2]; single agent Compound 1 IV at 6.25, and 12.5 mg/kg BIW for 3 weeks): minimal to modest anti-tumor activity
- Tumor Volume Day 21 ([3]; 10 mg/kg Compound 1 BIWx3 IV, in mm³ (unit assumed)): 609.3
- anti-tumor activity compared to vehicle control ([3]; single agent Compound 1 IV at 10 mk/kg BIW): modest anti-tumor activity
- Volume Tumor Day 14 ([4]; 6.25 mg/kg Compound 1 BIWx2 IV): 1291.5
- Volume Tumor Day 14 ([4]; 15 mg/kg Compound 1 BIWx2 IV): 1638.6
- Volume Tumor Day 14 ([4]; 20 mg/kg Compound 1 BIWx2 IV): 1406.7
- anti-tumor activity compared to vehicle control [4, 7]: modest to weak anti-tumor activity
- Tumor Volume Day 21 ([5]; 6.25 mg/kg Compound 1 BIWx3 IV): 815
- Tumor Volume Day 21 ([5]; 15 mg/kg Compound 1 BIWx3 IV): 185
- Tumor Volume Day 21 ([5]; 20 mg/kg Compound 1 BIWx3 IV): 47.4
- anti-tumor activity compared to vehicle control ([5]; single agent Compound 1 IV at 6.25, 15, and 20 mg/kg BIW for 3 weeks): modest to strong anti-tumor activity
- Tumor Volume Day 21 ([6]; 6.25 mg/kg Compound 1 BIWx3 IV): 988.8
- Tumor Volume Day 21 ([6]; 15 mg/kg Compound 1 BIWx3 IV): 1624.9
- Tumor Volume Day 21 ([6]; 20 mg/kg Compound 1 BIWx3 IV): 1476.3
- anti-tumor activity compared to vehicle control [6, 7]: modest to weak anti-tumor activity
